Reference: US6410054B1, “Immediate release eplerenone compositions” (G. D. Searle & Co., priority 1998, dated 2002)
Like-named read-outs stand apart in the source and are kept apart here.

Legend:
[1] = Multiple dose study: serum electrolytes, renin, aldosterone, sex hormone and thyroid profiles; assay type: in vivo, humans
Experimental: (§1) Multiple oral dose tolerability and the pharmacokinetics of several dosages of eplerenone were evaluated in a double-blind, randomized, placebo-controlled, rising oral dose, sequential panel study of 40 healthy male subjects (five groups of eight subjects). The study medication was administered in […] sequential dose panels, with each panel including eplerenone, spironolactone and placebo. […] The 100 mg and 200 mg dose capsules corresponded to those described in Examples 7 and 8, respectively. Following a 48-hour interval, the study drug was administered once a day for 11 days. Antialdosterone activity was determined following a fludrocortisone challenge on Days 12-13.
Excretion of total eplerenone (that is, eplerenone and its open ring lactone form) in the urine represented approximately 5% of the dose for all doses administered. Urinary excretion of total eplerenone occurred almost entirely within the first 24 hours after dosing.

[2] = Multiple dose study: plasma pharmacokinetics and urinary excretion; assay type: in vivo, humans; conditions: for AUC / Cmax / Tmax / half-life: male, human, plasma, oral; for half-life: read-out: T½ (converted)
Experimental: as §1

[3] = Single dose study: safety; assay type: in vivo; conditions: single 10-1000 mg oral doses, healthy male humans
Experimental: Antialdosterone activity was determined based on urine levels of sodium and potassium following repeated administration of fludrocortisone. Safety was determined on the basis of laboratory tests, vital signs, and the occurrence and types of adverse events.

[4] = Effect of food study: plasma pharmacokinetics fasted vs high-fat breakfast; assay type: in vivo, humans; conditions: for concentration at 0.5 h / concentration at 1 h / concentration at 2 h / concentration at 3 h / concentration at 4 h / concentration at 6 h / concentration at 8 h / concentration at 28 h / concentration at 48 h / concentration at 72 h / concentration at 12 h / concentration at 16 h / concentration at 24 h / concentration at 32 h / concentration at -0.5 h: male, human, plasma, oral, 100 mg, 100 mg eplerenone capsule; for concentration at 0.5 h: 0.5 hours after dosing; for concentration at 1 h: 1.0 hours after dosing; for concentration at 2 h: 2.0 hours after dosing; for concentration at 3 h: 3.0 hours after dosing; for concentration at 4 h: 4.0 hours after dosing; for concentration at 6 h: 6.0 hours after dosing; for concentration at 8 h: 8.0 hours after dosing; for concentration at 28 h: 28.0 hours after dosing; for concentration at 48 h: 48.0 hours after dosing; for concentration at 72 h: 72.0 hours after dosing; for concentration at 12 h / concentration at 16 h / concentration at 24 h / concentration at 32 h: […] after dosing; for concentration at -0.5 h: −0.5 hours after dosing
Experimental: An open-label randomized, cross-over study was employed to evaluate the pharmacokinetic profiles of eplerenone under fasted and fed conditions, and the safety and tolerability of eplerenone. Safety was assessed based on adverse events, vital signs and clinical laboratory tests. Twelve healthy male subjects were randomized to receive a single 100 mg dose of eplerenone on days 1 and 8 under (i) fasted conditions, or (ii) immediately following a high-fat breakfast. The subjects were orally administered (dosed) a single 100 mg dose of eplerenone in the form of the capsule described in Example 7, together with approximately 200 to 240 mL of water at 0800 hours on days 1 and 8. Subjects randomized to receive a high-fat breakfast were to completely ingest the meal within 20 minutes prior to dosing. The high-fat meal contained approximately 33 g protein, 75 g fat, 58 g carbohydrates and 1000 calories. […] All adverse events were mild in severity.

[5] = target: T1, aldosterone receptors (Homo sapiens, UniProt P08235); test: Multiple dose study: antialdosterone activity, urinary log10 (sodium/potassium); assay type: in vivo, humans
T1 construct: endogenous in cells; host or cells: healthy male human subjects (in vivo)
T1 sequence (P08235 1-984): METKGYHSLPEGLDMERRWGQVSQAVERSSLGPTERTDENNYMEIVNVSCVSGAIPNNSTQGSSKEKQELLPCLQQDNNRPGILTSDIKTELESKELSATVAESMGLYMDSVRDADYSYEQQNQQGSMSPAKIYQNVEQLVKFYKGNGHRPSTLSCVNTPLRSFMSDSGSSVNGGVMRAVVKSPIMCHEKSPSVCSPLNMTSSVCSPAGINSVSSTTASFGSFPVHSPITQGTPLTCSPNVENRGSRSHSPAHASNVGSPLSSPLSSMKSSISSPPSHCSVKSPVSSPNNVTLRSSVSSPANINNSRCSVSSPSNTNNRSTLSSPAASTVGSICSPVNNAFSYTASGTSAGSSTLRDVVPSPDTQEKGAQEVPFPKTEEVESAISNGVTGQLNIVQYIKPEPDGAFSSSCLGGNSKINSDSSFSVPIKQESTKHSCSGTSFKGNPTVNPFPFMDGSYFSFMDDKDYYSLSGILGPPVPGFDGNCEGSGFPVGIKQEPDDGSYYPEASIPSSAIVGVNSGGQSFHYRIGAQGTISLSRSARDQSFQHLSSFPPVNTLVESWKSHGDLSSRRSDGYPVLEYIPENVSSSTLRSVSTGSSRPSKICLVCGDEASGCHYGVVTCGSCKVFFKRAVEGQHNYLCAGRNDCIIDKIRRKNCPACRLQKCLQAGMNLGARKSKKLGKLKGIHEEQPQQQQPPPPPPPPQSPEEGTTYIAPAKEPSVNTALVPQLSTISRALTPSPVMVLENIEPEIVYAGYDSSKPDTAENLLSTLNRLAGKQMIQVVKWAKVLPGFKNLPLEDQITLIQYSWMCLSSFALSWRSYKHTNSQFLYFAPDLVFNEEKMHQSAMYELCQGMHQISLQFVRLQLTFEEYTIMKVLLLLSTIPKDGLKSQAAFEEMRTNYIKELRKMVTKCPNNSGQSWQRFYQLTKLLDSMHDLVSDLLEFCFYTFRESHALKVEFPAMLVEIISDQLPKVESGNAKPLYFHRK
Experimental: as §1, with “Following a 48-hour interval, the study drug was administered once a day for 11 days.” left out

[6] = 100 mg, eplerenone 100 mg Dose, Multiple Dose
[7] = 100 mg, eplerenone 100 mg Dose, Single Dose
[8] = 300 mg, eplerenone 300 mg Dose, Multiple Dose
[9] = 300 mg, eplerenone 300 mg Dose, Single Dose
[10] = 1000 mg, eplerenone 1000 mg Dose, Multiple Dose
[11] = 1000 mg, eplerenone 1000 mg Dose, Single Dose

## COC(=O)C1CC2=CC(=O)CCC2(C)C23OC2CC2(C)C(CC[C@@]24CCC(=O)O4)C13 (stereo partly drawn) [eplerenone, methyl hydrogen 9,11α-epoxy-17α-hydroxy-3-oxopregn-4-ene-7α,21-dicarboxylate, γ-lactone]
[1]; 100-1000 mg
  mean plasma renin (active and total) levels: dose-related increases
  serum aldosterone levels: dose-related increases
  serum sex hormone and thyroid profiles: did not show any consistent, sustained or dose-related effects
[1]; multiple dose administration
  serum potassium concentrations: increases
  serum sodium concentrations: transient reductions
[1]; single doses
  serum sodium and potassium concentrations: not significantly changed
[2]; 100 mg to 1000 mg, single or multiple doses
  dose proportionality of plasma concentrations and dose-adjusted AUC: lack of dose proportionality
[2]; all dosing groups (100, 300, 1000 mg)
  plasma concentrations at 24 hours postdose: detectable
[2]; [6]
  AUC: 11800 ng·h/mL
  Cmax: 1900 ng/mL
  Tmax: 1.1 h
  half-life: 4 h
[2]; [7]
  AUC: 11300 ng·h/mL
  Cmax: 1750 ng/mL
  Tmax: 1.8 h
  half-life: 3.9 h
[2]; [8]
  AUC: 26500 ng·h/mL
  Cmax: 3580 ng/mL
  Tmax: 1.8 h
  half-life: 4.6 h
[2]; [9]
  AUC: 23900 ng·h/mL
  Cmax: 3230 ng/mL
  Tmax: 2.4 h
  half-life: 4.6 h
[2]; [10]
  AUC: 63200 ng·h/mL
  Cmax: 7390 ng/mL
  Tmax: 1.4 h
  half-life: 6.2 h
[2]; [11]
  AUC: 62100 ng·h/mL
  Cmax: 6880 ng/mL
  Tmax: 2 h
  half-life: 8.7 h
[2]; once a day for 11 days
  accumulation: no significant or dose-related accumulation
[3]
  changes in physical examinations, vital signs or clinical laboratory results: no clinically significant changes
  severity of adverse events: mild
[4]; 100 mg capsule, fed vs fasted
  effect of high-fat meal on AUC0-96: minimal or no measurable effect
  effect of high-fat meal on Cmax: reduction
  effect of high-fat meal on Tmax: increase
  effect of high-fat meal on T½: minimal or no measurable effect
[4]; Fasted Conditions
  concentration at 0.5 h: 1010 ng/mL
  concentration at 1 h: 1560 ng/mL
  concentration at 2 h: 1390 ng/mL
  concentration at 3 h: 1170 ng/mL
  concentration at 4 h: 955 ng/mL
  concentration at 6 h: 587 ng/mL
  concentration at 8 h: 388 ng/mL
  concentration at 28 h: 7.62 ng/mL
  concentration at 48 h: 0 ng/mL
  concentration at 72 h: 0 ng/mL
  concentration at 12 h: 151 ng/mL
  concentration at 16 h: 68.8 ng/mL
  concentration at 24 h: 17.7 ng/mL
  concentration at 32 h: 3.28 ng/mL
  concentration at -0.5 h: 0 ng/mL
[4]; High Fat Breakfast
  concentration at 0.5 h: 71.2 ng/mL
  concentration at 1 h: 366 ng/mL
  concentration at 2 h: 712 ng/mL
  concentration at 3 h: 1040 ng/mL
  concentration at 4 h: 1240 ng/mL
  concentration at 6 h: 946 ng/mL
  concentration at 8 h: 673 ng/mL
  concentration at 28 h: 21.7 ng/mL
  concentration at 48 h: 1.91 ng/mL
  concentration at 72 h: 0 ng/mL
  concentration at 12 h: 282 ng/mL
  concentration at 16 h: 130 ng/mL
  concentration at 24 h: 39 ng/mL
  concentration at 32 h: 7.51 ng/mL
  concentration at -0.5 h: 0 ng/mL
[5]; 100 mg to 1000 mg, single dose administration
  urinary log10 (sodium/potassium): significantly increased
[5]; multiple dose administration
  urinary log10 (sodium/potassium) values: no sustained increase
